Data taken from paper PMC12435445, “Crown Ether–Peptide Rotaxanes” (Angewandte Chemie (International Ed. in English), 2025).

Assay: Stability of rotaxane positional isomers to heating or standing, followed by 1H NMR
Assay type: physicochemical
Protocol: The properties of the 1:0:0‐, 0:1:0‐ and 0:0:1‐diastereomers of 24C8⊂16 were probed using a range of spectroscopic and spectrometric techniques. No change in the ^1H NMR spectra of the rotaxane positional isomers occurred upon heating at 70 °C in DMSO‐d6 for 2 h, or after prolonged periods at room temperature. […] When compared to the noninterlocked thread peptide 16; significant downfield shifts are observed for Hb in 1:0:0–24C8⊂16 (ΔδHb = +0.45 ppm), Hh in 0:1:0–24C8⊂16 (ΔδHh = +0.30 ppm) and Hq in 0:0:1–24C8⊂16 (ΔδHq = +0.21 ppm). The protons associated with the encapsulated glycine residue are also downshifted (protons Hf, Ho and Hu, in 1:0:0–24C8⊂16, 0:1:0–24C8⊂16 and 0:0:1–24C8⊂16, respectively). Substantial upfield shifts for the amide protons Ha, He, Hg, Hn (ΔδH = −0.78, −0.43, −0.40, and −0.49 ppm) in 1:0:0–24C8⊂16, Hg, Hn, Hp, and Ht in 0:1:0–24C8⊂16 (ΔδH = −0.26, −0.48, −0.45, and −0.44 ppm), and Hp, Ht and Hv (ΔδH = −0.33, −0.44, and −0.63 ppm) in 0:0:1–24C8⊂16 indicate that the crown ether also interacts with the amide group of the C‐adjacent residue. As in the tripeptide rotaxanes 24C8⊂4–14, the diastereotopic splitting for the encapsulated glycine methylene becomes more pronounced, as do the protons of the leucine residue (Hd), within 1:0:0–24C8⊂16. The presence of the macrocycle reduces the rotation of nearby amides within the compartment it occupies.

change in the 1H NMR spectra (interconversion of positional isomers or dethreading of macrocycle) (heating at 70 °C in DMSO-d6 for 2 h): No change
change in the 1H NMR spectra (interconversion of positional isomers or dethreading of macrocycle) (prolonged periods at room temperature): No change
Substance: Boc‐Leu‐Gly‐Trp‐Gly‐Tyr(TIPS)‐Gly‐Phe‐OMe [1:0:0–24C8⊂16, 24C8 crown ether–heptapeptide [2]rotaxane, ring on left‐hand glycine between Boc‐Leu and Trp of axle 16]
